# Test results from US20200197341A1, “IMMUNMODULATION FOR PREVENTION OF POOR HEALING OF MUSCULOSKELETAL INJURIES IN COMPROMISED PATIENTS” (CHARITÉ UNIVERSITÄTSMEDIZIN BERLIN, priority 2017, published 2020).
# “Also recorded” adds a separate entry of the source.
# Tests used:
# [1] = system: femur mouse osteotomies; experiment: Mouse femur osteotomy with fibrin release system, μCT of newly formed bone; format: in vivo
# Protocol: Mouse experiments were performed with 12-week-old C57BL/6 females (n=6, each sample type) (Charles River Laboratories) according to the policies and principles established by the Animal Welfare Act, the National Institutes of Health Guide for the Care and Use of Laboratory Animals, and the National Animal Welfare Guidelines. All animal experiments were approved by the local legal representative. Animals were kept under obligatory hygiene standards that were monitored according to the FELASA standards.
# The osteotomy was performed on the left femur. After shaving and disinfecting the operation area of isoflurane-anesthetized animals, a lateral longitudinal incision of the skin (2 mm) from knee to hip was performed for a mid-diaphyseal approach to the femur. The femur was exposed by blunt preparation of Musculus vastus lateralis and Muscculus biceps femoris, carefully sparing the sciatic nerve. Serial drilling for pin placement (0.45 mm diameter) through the connector bar of the external fixator (MouseExFix, RlSystem, Davos, Switzerland) was performed, thus positioning the external fixator laterally in parallel to the femur. A 0.70 mm osteotomy was performed between the middle pins using a Gigli wire saw (RISystem, Davos, Switzerland). […]
# The newly formed mineralized bone tissues were analyzed using high-resolution micro computed tomography (μCT). […]
# [2] = system: drill hole in the diaphyseal and metaphyseal bone; experiment: Sheep drill hole bone healing model, μCT evaluation of bone formation; format: in vivo; details: after 3 and 9 weeks, Iloprost in collagen scaffold (burst release), applied immediately, 1 ml Ilomedin per two scaffolds
# Excerpt: Prior publications, e.g. US 20150164853 A1, stated that immediate use of Iloprost locally to enhance bone healing is beneficial. To investigate this a high dose of Iloprost was used in a sheep bone healing model where the agent was applied in a collagen scaffold, which has a burst-release dynamic.
# Bone formation has been analyzed in a drill hole model (Establishment of a preclinical ovine screening model for the investigation of bone tissue engineering strategies in cancellous and cortical bone defects. Pobloth A M, Johnson K A, Schell H, Kolarczik N, Wulsten D, Duda G N, Schmidt-Bleek K. BMC Musculoskelet Disord. 2016 Mar. 1; 17:111.). The empty control group and the collagen only group were used as negative controls while the autologous spongiosa group, the current gold standard in bone therapy, was used as a positive control. In the Ilomedin group a supraphysiological dosis of 1 ml Iloprost (Ilomedin, […] Infusionslosung, Bayer Vital GmbH, Leverkusen, Deutschland) per two scaffolds was used.
smiles,measurement,setting,value
CC#CCC(C)[C@H](O)/C=C/[C@@H]1[C@H]2C/C(=C/CCCC(=O)O)C[C@H]2C[C@H]1O (stereo partly drawn) [Iloprost],newly formed bone volume (BV),"[1]; mouse femur osteotomy, 21 days healing, fibrin release system with 3 μM Iloprost in core, median, N=6, p=0.016 vs vehicle",1.347 mm^3
same,volumes of newly formed bone vs empty vehicle control (μCT),"[1]; mouse, after 21 days of regeneration, Iloprost loaded release system",significantly increased volumes of newly formed bone
same,bone formation in a drill hole (μCT),[2],No differences between the collagen group and the collagen Iloprost loaded group; also recorded: no enhanced bone formation was detectable
